Reference: US8980954B2, “Substituted cis- and trans-stilbenes as therapeutic agents” (STC.UNM, priority 2006, dated 2015)

Columns and labels:
AP-1 = assay: Inhibition of the TPA-induced activation of AP-1, 293T/AP-1-luc luciferase reporter cell assay; type: cell-based, human; conditions: 293T/AP-1-luc cells, TPA 10 ng/ml, 24 hours; for IC50: Homo sapiens
Protocol: An AP-1 reporter stable cell line derived from human 293T embryonic kidney cells transfected with a luciferase reporter construct containing three AP-1 binding sites in the promoter (293T/AP-1-luc, Panomics, Inc., Redwood City, Calif.) was grown in a humidified atmosphere at 37° C. in 5% CO2/95% air. The cells were maintained in Dulbecco's Modified Eagle's Medium (DMEM—high glucose containing 4 mM glutamine) supplemented with 10% fetal bovine serum (FBS), 1 mM sodium pyruvate, 100 units/ml penicillin, 100 μg/ml streptomycin and 100 μg/ml hygromycin (Gibco/Invitrogen, Carlsbad, Calif.) to maintain cell selection. One day prior to treatment, the 293T/AP-1-luc cells were plated into 24-well cell culture plates (Costar, Cambridge, Ma.) in the above media without hygromycin. The following day, the cells, which were at approximately 60% confluency, were fed fresh media with or without TPA, 10 ng/ml, (Calbiochem) and immediately treated with curcumin or analog prepared in DMSO stock solutions. The cells were placed again in a humidified atmosphere at 37° C. in 5% CO2/95% air for 24 hours. Plate wells were gently washed with phosphate buffered saline, pH 7.4, and lysed with 1x passive lysis buffer (Promega, Madison, Wis.). The subsequent lysates were analyzed with the Luciferase Assay System (Promega) utilizing a TD-20/20 luminometer (Turner Designs, Sunnyvale, Calif.). The firefly luciferase relative light units were normalized to protein (mg/ml) with BCA™ Protein Assay Kit (Pierce, Rockford, Ill.) and standardized to percent of control (TPA control).

NF-κB [1] = assay: Inhibition of the TNFα-induced activation of NF-κB, 293T/NF-κB-luc luciferase reporter cell assay; type: cell-based, human; conditions: 7 hours; for activity as inhibitor of the TNFα-induced activation of NF-κB in the preliminary screen: screened at 15 μM, FIGS. 1-5; for IC50: Homo sapiens, HEK-293T, 293T/NF-κB-luc cells, TNFα 20 ng/ml, triplicate, read-out: IC50 for inhibition of the TNFα-induced activation of NFκB
Protocol: The cells were maintained in Dulbecco's Modified Eagle's Medium (DMEM—high glucose containing 4 mM glutamine) supplemented with 10% fetal bovine serum (FBS), 1 mM sodium pyruvate, 100 units/ml penicillin, 100 μg/ml streptomycin and 100 μg/ml hygromycin (Gibco/Invitrogen, Carlsbad, Calif.) to maintain cell selection. […] The following day cells were fed fresh media 1 hour prior to treatment. […] Plate wells were gently washed with phosphate buffered saline, pH 7.4, and lysed with 1x passive lysis buffer (Promega, Madison, Wis.). The subsequent lysates were analyzed with the Luciferase Assay System (Promega) utilizing a TD-20/20 luminometer (Turner Designs, Sunnyvale, Calif.). The firefly luciferase relative light units were normalized to protein (mg/ml) with BCA™ Protein Assay Kit (Pierce, Rockford, Ill.) and standardized to percent of control (TNFα control).

[2] = TRAP assay (total radical-trapping anti-oxidant parameter)
From the text: (§1) The total radical-trapping anti-oxidant parameter assay (TRAP assay) measures the ability of an analog to react with the pre-formed radical monocation of 2,2′-azinobis-(3-ethylbenzothiazoline-6-sulfonic acid) (ABTS-^+). The ferric reducing/anti-oxidant power assay (FRAP assay) measures the ability of an analog to reduce a ferric tripyridyltriazine complex.
(§2) In both colorimetric assays, the vitamin E analog Trolox was used as a control.
(§3) The anti-oxidant activities of certain stilbene analogs according to the present invention were determined using two standard assays. See, Schlesier, et al., Free Rad Res. 2002;36:177-187. The total radical-trapping anti-oxidant parameter assay (TRAP assay) measures the ability of an analog to react with the pre-formed radical monocation of 2,2′-azinobis-(3-ethylbenzothiazoline-6-sulfonic acid) (ABTS^+). See, Re, et al., Free Rad Biol Med, 26:1231-1237 (1999). ABTS was reacted with potassium persulfate in the dark, overnight, to generate the colored ABTS^+ radical cation, which has an absorption maximum at 734 nm. The activities of curcumin and analogs were determined by their abilities to quench the color of the radical cation. The ferric reducing/anti-oxidant power assay (FRAP assay) measures the ability of an analog to reduce a ferric tripyridyltriazine complex. See, Benzie and Strain, Meth Enzymol, 299:15-27 (1999). The ferric complex of 2,4,6-tripyridyl-s-triazine was prepared at acidic pH, and the anti-oxidant activities of curcumin and analogs were determined by their abilities to reduce the ferric complex to the ferrous complex, monitored by formation of the ferrous complex at 593 nm. In both colorimetric assays, the vitamin E analog Trolox was used as a control.

[3] = FRAP assay (ferric reducing/anti-oxidant power)
From the text: as §1, §2
as §3, with “ABTS was reacted with potassium persulfate in the dark, overnight, to generate the colored ABTS^+ radical cation, which has an absorption maximum at 734 nm.” left out, “The ferric reducing/anti-oxidant power assay (FRAP assay) measures the ability of an analog to reduce a ferric tripyridyltriazine complex. See, Benzie and Strain, Meth Enzymol, 299:15-27 (1999).” left out, “In both colorimetric assays, the vitamin E analog Trolox was used as a control.” left out

COX-2 mRNA = assay: Inhibition of LPS-induced expression of COX-2 mRNA in BV-2 microglial cells (qRT-PCR); type: cell-based, mouse; conditions: BV-2 cells, LPS 0.2 μg/ml, 24 hours; for inhibition of LPS-induced COX-2 mRNA compared with resveratrol: 0.15 μM
NF-κB [4] = conditions: cited from earlier work

Structure (SMILES) | IC50 (AP-1) [µM] | activity as inhibitor of the TNFα-induced activation of NF-κB in the preliminary screen (NF-κB [1]) | IC50 (NF-κB [1]) [µM] | other results
COc1ccc(/C=C/c2ccccn2)cc1 | 2.1 ± 0.4 |  |  | 
COc1ccc(/C=C/c2ccccc2)cc1 [4b, (E)-4-Methoxystilbene] | 1.3 ± 0.03 | especially active |  | 
CN(C)c1ccc(/C=C/c2ccccc2)cc1 [4cc, (E)-4-N,N-Dimethylaminostilbene] | 1.1 ± 0.1 |  | 0.15 | anti-oxidant activity in the TRAP assay [2]: exhibits anti-oxidant activity; anti-oxidant activity (TRAP or FRAP assay, not told apart) [2]: retained anti-oxidant activity; anti-oxidant activity in the FRAP assay [3]: exhibits anti-oxidant activity; inhibition of LPS-induced COX-2 mRNA compared with resveratrol (COX-2 mRNA): almost as effective as 4 μM resveratrol
Cc1ccc(/C=C/c2ccccc2)cc1 [4d, (E)-4-Methylstilbene] | 1.6 ± 0.6 |  |  | 
CCOc1ccc(/C=C/c2ccccc2)cc1 [4k, (E)-4-Ethoxystilbene] | 0.8 ± 0.1 |  |  | 
COc1cccc(/C=C/c2ccccc2)c1OC [4o, (E)-2,3-Dimethoxystilbene] |  | retained very little activity |  | 
COc1ccc(/C=C/c2ccccc2)cc1O [4s, (E)-3-Hydroxy-4-methoxystilbene] |  | considerably more active than resveratrol |  | 
COc1ccc(/C=C/c2ccccc2)c(OC)c1 [4u, (E)-2,4-Dimethoxystilbene] |  | especially active |  | 
COc1ccc(/C=C/c2ccc(OC)cc2)cc1 [6b, (E)-4,4′-Dimethoxystilbene] |  | retained very little activity |  | 
COc1ccc(/C=C/c2cccc(O)c2O)cc1 [6cc, (E)-2,3-Dihydroxy-4′-methoxystilbene] |  | considerably more active than resveratrol |  | 
COc1ccc(/C=C/c2ccc(C)cc2)cc1 [6d, (E)-4′-Methoxy-4-methylstilbene] | 0.8 ± 0.03 |  | 0.9 ± 0.1 | 
COc1ccc(/C=C/c2cc(OC)cc(OC)c2)cc1 [6f, (E)-3,4′,5-Trimethoxystilbene] | 3.8 ± 1.1 | especially active |  | 
COc1ccc(/C=C/c2cccc(Cl)c2)cc1 [6h, (E)-3-Chloro-4′-methoxystilbene] | 0.8 ± 0.15 |  | 1 ± 0.1 | 
COc1ccc(/C=C/c2cccc(C)c2)cc1 [6i, (E)-4′-Methoxy-3-methylstilbene] | 1 ± 0.12 |  | 0.8 ± 0.2 | 
COc1ccc(/C=C/c2ccccc2Cl)cc1 [6j, (E)-2-Chloro-4′-methoxystilbene] |  |  | 1.5 ± 0.03 | 
COc1ccc(/C=C/c2cccc(F)c2)cc1 [6n, (E)-3-Fluoro-4′-methoxystilbene] | 0.5 ± 0.1 |  |  | 
COc1ccc(/C=C/c2cccc(OC)c2OC)cc1 [6o, (E)-2,3,4′-Trimethoxystilbene] | 2.4 ± 0.7 | especially active |  | 
COc1ccc(/C=C/c2ccccc2F)cc1 [6p, (E)-2-Fluoro-4′-methoxystilbene] | 0.8 ± 0.1 |  | 0.15 | anti-oxidant activity (TRAP or FRAP assay, not told apart) [2]: does not exhibit anti-oxidant activity; inhibition of LPS-induced COX-2 mRNA compared with resveratrol (COX-2 mRNA): almost as effective as 4 μM resveratrol
COc1ccc(/C=C/c2cccc(OC)c2)cc1 [6r, (E)-3,4′-Dimethoxystilbene] | 0.7 ± 0.04 | especially active | 0.6 ± 0.1 | 
COc1ccc(/C=C/c2ccc(O)c(O)c2)cc1 [6x, (E)-3,4-Dihydroxy-4′-methoxystilbene] |  | considerably more active than resveratrol | 0.6 ± 0.4 | 
Oc1ccc(/C=C/c2cc(O)cc(O)c2)cc1 [resveratrol, 3,4′,5-trihydroxystilbene, reference compound] |  |  | 20 ± 3 | inhibition of LPS-induced COX-2 mRNA (COX-2 mRNA; 4 μM): about 50%; suppression of LPS-induced COX-2 mRNA (COX-2 mRNA; 20 μM): markedly suppressed; effect on TPA-induced AP-1 activation (AP-1): activated; inhibition of TNF-induced activation of NF-κB (literature) (NF-κB [4]): inhibits TNF-induced activation of NF-κB
C(=Cc1ccccc1)c1ccccc1 [stilbene] |  |  |  | inhibition of TNF-induced activation of NF-κB (literature) (NF-κB [4]): inactive
